Values of other authors in patent US10314832B2, “β- and γ-diketones and γ-hydroxyketones as Wnt/β-catenin signaling pathway activators” (Samumed, LLC, priority 2010, dated 2019).

Columns and labels:
[1] = topical solution, patients with age-related hair loss; cited from earlier work
[2] = system: dedifferentiated Müller glia; conditions: photoreceptor-damaged retina; cited from earlier work

Molecule | patients with moderate regrowth of hair [1] | increase in proliferation of dedifferentiated Müller glia [2]
Nc1cc(N2CCCCC2)nc(N)[n+]1[O-] [minoxidil] | less than 40% | –
Wnt3a: Wnt ligand protein; soluble peptide agonist of LRP5 and Fzd co-receptors (protein, UniProt P56704 19-352, looked up) Protein Wnt-3a: SYPIWWSLAVGPQYSSLGSQPILCASIPGLVPKQLRFCRNYVEIMPSVAEGIKIGIQECQHQFRGRRWNCTTVHDSLAIFGPVLDKATRESAFVHAIASAGVAFAVTRSCAEGTAAICGCSSRHQGSPGKGWKWGGCSEDIEFGGMVSREFADARENRPDARSAMNRHNNEAGRQAIASHMHLKCKCHGLSGSCEVKTCWWSQPDFRAIGDFLKDKYDSASEMVVEKHRESRGWVETLRPRYTYFKVPTERDLVYYEASPNFCEPNPETGSFGTRDRTCNVSSHGIDGCDLLCCGRGHNARAERRREKCRCVFHWCCYVSCQECTRVYDVHTCK | – | > 20 fold
